Results on one compound are retold here after patent publication US9567334B2, “Quinolone derivatives as fibroblast growth factor receptor inhibitors” (Principia Biopharma, Inc., priority 2014, dated 2017).

Each structure is given as a SMILES string.

For the test, the system named is SNU-16 cells. As to the kind of experiment: Inhibition of FGFR2-dependent cell growth (Cell-titer Glo, 72 hrs). As to conditions: Homo sapiens, SNU-16, 72 h, read-out: SNU16 IC50 values.

Consider `C=CC(=O)N1CCN(CCCn2c(=O)c(-c3c(Cl)c(OC)cc(OC)c3Cl)cc3cnc(NC4COC4)nc32)CC1` [Example 66, 8-(3-(4-acryloylpiperazin-1-yl)propyl)-6-(2,6-dichloro-3,5-dimethoxyphenyl)-2-(oxetan-3-ylamino)pyrido[2,3-d]pyrimidin-7(8H)-one], for which the IC50 was more than 5 µM.

A word on the IC50: it is the midpoint of a concentration-inhibition curve.
